Assay results published in US11141462B2, “Method for the treatment or prevention of osteoarthritis” (Chondropeptix B.V., priority 2016, dated 2021).

Tested on: OA articular chondrocytes
Assay: OA chondrocyte phenotype gene expression screening of BMP-7 peptides (RT-qPCR)
Assay type: cell-based, human
Parameters: key to COX-2 / COL2A1 / SOX9: [+] denotes a significantly increased expression of chondrogenic marker genes SOX9 and COL2A1, or a significantly decreased expression of OA phenotypic marker COX-2 in OA articular chondrocytes, in comparison to untreated OA articular chondrocytes; key to IL-6 / ADAMTS5 / COL10A / BAPX1/NKX3.2 / ALP / RUNX2: —: [-] denotes the absence of a significant effect or a significantly decreased expression of chondrogenic marker genes BAPX1/NKX3.2, or a significantly increased expression of OA phenotypic markers IL-6, ADAMTS5, COL10A, ALP and RUNX2 in OA articular chondrocytes, in comparison to untreated OA articular chondrocytes
Settings: for COL2A1 / COX-2 / SOX9: Table 5
Method: (§1) FIG. 2: The action of 20-mer peptides (10 nM) of SEQ ID NO: 2-17 (peptides with 1 or 2 amino acids intervals (18-19 amino acid overlap)) and a random peptide with a sequence according to SEQ ID NO: 49 on the expression of ADAMTS5 was determined on a validated pool of passage 2 OA human articular chondrocytes (n=18) and compared to full-length recombinant BMP-7 (1 nM). Samples were harvested after 24 hours and analyzed for indicated genes by RT-qPCR (normalized for 28S rRNA expression and relative to control conditions (no peptide exposure)). In the graphs, numbers on the x-axis represent individual peptides according to their SEQ ID NO's, error bars represent mean±SEM, statistical differences were calculated (one-way ANOVA with bonferroni correction) to control condition. *=p<0.05 lower than control condition for ADAMTS5. Random peptide is a peptide according to SEQ ID NO: 49.
as §1, with “3:” for “2:”, “ALP” for “ADAMTS5”, “ALP.” for “ADAMTS5.”
as §1, with “4:” for “2:”, “BAPX1/NKX3.2” for “ADAMTS5”, “BAPX1/NKX3.2.” for “ADAMTS5.”
as §1, with “5:” for “2:”, “COL10A1” for “ADAMTS5”, “COL10A1.” for “ADAMTS5.”
FIG. 6: The action of 20-mer peptides (10 nM) of SEQ ID NO: 2-17 (peptides with 1 or 2 amino acids intervals (18-19 amino acid overlap)) and a random peptide with a sequence according to SEQ ID NO: 49 on the expression of IL-6 was determined on a validated pool of passage 2 OA human articular chondrocytes (n=18) and compared to full-length recombinant BMP-7 (1 nM). […]

[1] = Table 2 (FIG. 2: 10 nM, 24 hours, RT-qPCR, 28S rRNA normalized), vs untreated OA articular chondrocytes
[2] = Table 2 (FIG. 3: 10 nM, 24 hours, RT-qPCR, 28S rRNA normalized), vs untreated OA articular chondrocytes
[3] = Table 2 (FIG. 4: 10 nM, 24 hours, RT-qPCR, 28S rRNA normalized), vs untreated OA articular chondrocytes
[4] = Table 2 (FIG. 5: 10 nM, 24 hours, RT-qPCR, 28S rRNA normalized), vs untreated OA articular chondrocytes
[5] = Table 2 (FIG. 6: 10 nM, 24 hours, RT-qPCR, 28S rRNA normalized), vs untreated OA articular chondrocytes
[6] = Table 2 (FIG. 7: 10 nM, 24 hours, RT-qPCR, 28S rRNA normalized), vs untreated OA articular chondrocytes
[7] = gene expression in OA articular chondrocytes vs untreated
[8] = Table 1, gene expression in OA articular chondrocytes vs untreated

| Substance | ADAMTS5 [1] | ALP [2] | BAPX1/NKX3.2 [3] | COL10A [4] | IL-6 [5] | RUNX2 [6] | COL2A1 [7] | COX-2 [7] | SOX9 [7] | ADAMTS5 [8] | ALP [8] | BAPX1/NKX3.2 [8] | COL10A [8] | IL-6 [8] | RUNX2 [8] |
| --- | --- | --- | --- | --- | --- | --- | --- | --- | --- | --- | --- | --- | --- | --- | --- |
| 1 (FINPETVPKPSSAPTQLNAISVLYFDDSSNVILKKYRNMVVRASGSH; listed as Homo sapiens) [compound 1] | — | — | — | — | — | — |  |  |  |  |  |  |  |  |  |
| 2 (FINPETVPKPSSAPTQLNAI; listed as Homo sapiens) [compound 2] | — | — | — | — | — | — |  |  |  |  |  |  |  |  |  |
| 3 (NPETVPKPSSAPTQLNAISV; listed as Homo sapiens) [compound 3] | — | — | — | — | — | — |  |  |  |  |  |  |  |  |  |
| 4 (ETVPKPSSAPTQLNAISVLY; listed as Homo sapiens) [compound 4] | — | — | — | — | — | — |  |  |  |  |  |  |  |  |  |
| 5 (VPKPSSAPTQLNAISVLYFD; listed as Homo sapiens) [compound 5] | — | — | — | — | — | + |  |  |  |  |  |  |  |  |  |
| 6 (PKPSSAPTQLNAISVLYFDD; listed as Homo sapiens) [compound 6] | + | + | + | + | + | + | + | + | + |  |  |  |  |  |  |
| 7 (KPSSAPTQLNAISVLYFDDS; listed as Homo sapiens) [compound 7] | + | + | + | + | + | + | + | + | + |  |  |  |  |  |  |
| 8 (SSAPTQLNAISVLYFDDSSN; listed as Homo sapiens) [compound 8] | + | + | + | + | + | + | + | + | + |  |  |  |  |  |  |
| 9 (APTQLNAISVLYFDDSSNVI; listed as Homo sapiens) [compound 9] | + | + | + | - | + | + | + | + | + |  |  |  |  |  |  |
| 10 (TQLNAISVLYFDDSSNVILK; listed as Homo sapiens) [compound 10] | + | + | + | - | + | + | + | + | + |  |  |  |  |  |  |
| 11 (LNAISVLYFDDSSNVILKKY; listed as Homo sapiens) [compound 11] | + | + | + | + | + | + | + | + | + |  |  |  |  |  |  |
| 12 (AISVLYFDDSSNVILKKYRN; listed as Homo sapiens) [compound 12] | + | + | + | + | + | + | + | + | + |  |  |  |  |  |  |
| 13 (SVLYFDDSSNVILKKYRNMV; listed as Homo sapiens) [compound 13] | + | + | + | + | + | + | + | + | + |  |  |  |  |  |  |
| 14 (LYFDDSSNVILKKYRNMVVR; listed as Homo sapiens) [compound 14] | + | + | + | + | + | — | + | + | + |  |  |  |  |  |  |
| 15 (FDDSSNVILKKYRNMVVRAS; listed as Homo sapiens) [compound 15] | + | + | + | + | + | — | + | + | + |  |  |  |  |  |  |
| 16 (DSSNVILKKYRNMVVRASGS; listed as Homo sapiens) [compound 16] | + | + | + | + | + | — | + | + | + |  |  |  |  |  |  |
| 17 (SSNVILKKYRNMVVRASGSH; listed as Homo sapiens) [compound 17] | + | + | + | + | + | + | + | + | + |  |  |  |  |  |  |
| 18 (PKPSSAPTQLNAISVLYFDDSSNVILKKYRNMVVRASGSH; listed as Homo sapiens) [compound 18] | + | + | + | + | + | + |  |  |  |  |  |  |  |  |  |
| 19 (STGSKQRSQNRSKTPKNQEA; listed as Homo sapiens) [compound 19] |  |  |  |  |  |  |  |  |  | — | — | — | — | — | — |
| 20 (KTPKNQEALRMANVAENSSSSSDQRQACKK; listed as Homo sapiens) [compound 20] |  |  |  |  |  |  |  |  |  | — | — | — | — | — | — |
| 21 (SSDQRQACKKHELYVSFRDL; listed as Homo sapiens) [compound 21] |  |  |  |  |  |  |  |  |  | — | — | — | — | — | — |
